Results published in article PMC9132415, “Identification of 1H-pyrazolo[3,4-b]pyridine derivatives as novel and potent TBK1 inhibitors: design, synthesis, biological evaluation, and molecular docking study” (Journal of Enzyme Inhibition and Medicinal Chemistry, 2022).

Experiments:
PLK3 = PLK3 (Homo sapiens, UniProt Q9H4B4); test: Kinase selectivity profile (SelectScreen); format: biochemical; conditions: remaining kinase activity at 1.0 μM
Protocol: (§1) Compound 15y was evaluated for their inhibitory activities against 31 kinases at a single concentration (1 µM). Two different assay platforms were available for profiling—activity and binding. The Z′-LYTE and Adapta kinase activity assays were used most extensively for profiling and a smaller subset of kinases might be profiled using the LanthaScreen Eu Kinase Binding Assays.

PI3K(p110b/p85a) = PI3K(p110b/p85a) (Homo sapiens, UniProt P42338); test: Kinase selectivity profile (SelectScreen); format: biochemical; conditions: remaining kinase activity at 1.0 μM
Protocol: as §1

PKBα = PKBα (Homo sapiens, UniProt P31749); test: Kinase selectivity profile (SelectScreen); format: biochemical; conditions: remaining kinase activity at 1.0 μM
Protocol: as §1

EphA5 = EphA5 (Homo sapiens, UniProt P54756); test: Kinase selectivity profile (SelectScreen); format: biochemical; conditions: remaining kinase activity at 1.0 μM
Protocol: as §1

MEK1 = MEK1 (Homo sapiens, UniProt Q02750); test: Kinase selectivity profile (SelectScreen); format: biochemical; conditions: remaining kinase activity at 1.0 μM
Protocol: as §1

PKG1α = PKG1α (Homo sapiens, UniProt Q13976); test: Kinase selectivity profile (SelectScreen); format: biochemical; conditions: remaining kinase activity at 1.0 μM
Protocol: as §1

Rse = Rse (Homo sapiens, UniProt Q06418); test: Kinase selectivity profile (SelectScreen); format: biochemical; conditions: remaining kinase activity at 1.0 μM
Protocol: as §1

mTOR = mTOR (Homo sapiens, UniProt P42345); test: Kinase selectivity profile (SelectScreen); format: biochemical; conditions: remaining kinase activity at 1.0 μM
Protocol: as §1

IGF-1R = IGF-1R (Homo sapiens, UniProt P08069); test: Kinase selectivity profile (SelectScreen); format: biochemical; conditions: remaining kinase activity at 1.0 μM
Protocol: as §1

SAPK2a = SAPK2a (Homo sapiens, UniProt Q16539); test: Kinase selectivity profile (SelectScreen); format: biochemical; conditions: remaining kinase activity at 1.0 μM
Protocol: as §1

PKA = PKA (Homo sapiens, UniProt P17612); test: Kinase selectivity profile (SelectScreen); format: biochemical; conditions: remaining kinase activity at 1.0 μM
Protocol: as §1

PRAK = PRAK (Homo sapiens, UniProt Q8IW41); test: Kinase selectivity profile (SelectScreen); format: biochemical; conditions: remaining kinase activity at 1.0 μM
Protocol: as §1

eEF-2K = eEF-2K (Homo sapiens, UniProt O00418); test: Kinase selectivity profile (SelectScreen); format: biochemical; conditions: remaining kinase activity at 1.0 μM
Protocol: as §1

MAPKAP-K2 = MAPKAP-K2 (Homo sapiens, UniProt P49137); test: Kinase selectivity profile (SelectScreen); format: biochemical; conditions: remaining kinase activity at 1.0 μM
Protocol: as §1

CK1γ1 = CK1γ1 (Homo sapiens, UniProt Q9HCP0); test: Kinase selectivity profile (SelectScreen); format: biochemical; conditions: remaining kinase activity at 1.0 μM
Protocol: as §1

PKCθ = PKCθ (Homo sapiens, UniProt Q04759); test: Kinase selectivity profile (SelectScreen); format: biochemical; conditions: remaining kinase activity at 1.0 μM
Protocol: as §1

PI3K(p120g) = PI3K(p120g) (Homo sapiens, UniProt P48736); test: Kinase selectivity profile (SelectScreen); format: biochemical; conditions: remaining kinase activity at 1.0 μM
Protocol: as §1

PKCα = PKCα (Homo sapiens, UniProt P17252); test: Kinase selectivity profile (SelectScreen); format: biochemical; conditions: remaining kinase activity at 1.0 μM
Protocol: as §1

PDGFRβ = PDGFRβ (Homo sapiens, UniProt P09619); test: Kinase selectivity profile (SelectScreen); format: biochemical; conditions: remaining kinase activity at 1.0 μM
Protocol: as §1

EphB4 = EphB4 (Homo sapiens, UniProt P54760); test: Kinase selectivity profile (SelectScreen); format: biochemical; conditions: remaining kinase activity at 1.0 μM
Protocol: as §1

ASK1 = ASK1 (Homo sapiens, UniProt Q99683); test: Kinase selectivity profile (SelectScreen); format: biochemical; conditions: remaining kinase activity at 1.0 μM
Protocol: as §1

TBK1 = target: T1, TBK1 (Homo sapiens, UniProt Q9UHD2); test: FRET-based Z'-LYTE TBK1 enzymatic assay; format: biochemical; design: purchased Thermo Scientific A31513; conditions: 100 µM ATP
T1 sequence (Q9UHD2 1-729): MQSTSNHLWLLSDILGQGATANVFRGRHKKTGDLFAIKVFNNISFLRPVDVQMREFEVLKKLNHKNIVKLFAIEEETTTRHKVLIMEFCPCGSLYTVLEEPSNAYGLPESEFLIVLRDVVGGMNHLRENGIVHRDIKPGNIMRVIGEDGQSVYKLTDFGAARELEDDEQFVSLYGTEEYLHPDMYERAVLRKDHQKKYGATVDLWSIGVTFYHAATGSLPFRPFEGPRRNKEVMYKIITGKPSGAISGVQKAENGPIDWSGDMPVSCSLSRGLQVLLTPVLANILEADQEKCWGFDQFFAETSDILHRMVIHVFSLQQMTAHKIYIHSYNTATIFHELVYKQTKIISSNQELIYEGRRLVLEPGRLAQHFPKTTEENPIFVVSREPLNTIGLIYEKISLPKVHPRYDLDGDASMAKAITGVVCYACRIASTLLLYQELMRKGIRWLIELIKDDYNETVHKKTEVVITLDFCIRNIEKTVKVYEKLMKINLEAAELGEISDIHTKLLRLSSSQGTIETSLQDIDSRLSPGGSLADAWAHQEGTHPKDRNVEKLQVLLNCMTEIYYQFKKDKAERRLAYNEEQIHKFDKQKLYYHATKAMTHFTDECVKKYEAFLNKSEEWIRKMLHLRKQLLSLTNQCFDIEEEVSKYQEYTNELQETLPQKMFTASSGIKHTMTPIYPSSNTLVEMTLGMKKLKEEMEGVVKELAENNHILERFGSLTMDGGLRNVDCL

Panc0504 cells = test: Antiproliferative activity, SRB staining; format: cell-based; conditions: Panc 05.04, pancreatic cell line, 72 h
Protocol: (§2) A172, U87MG, A375, A2058, and Panc0504 cell lines were obtained from ATCC and cultured in indicated medium according to ATCC’s instructions. Cells were seeded in 96 well-plates at a destiny of around 2000 cells per well one day prior to administrated to increasing doses of indicated compounds. After 72 h of treatment, cells were washed with PBS and were fixed by 10% trichloroacetic acid before stained by sulphorhodamine B (SRB) solution. Unstained SRB were washed away by 1% acetic acid to reduce background signals. A Tris-based solution (10 mM) were used to dissolve stained SRB and the absorbance at 540 nm was measured with SpectraMax Paradigm (Molecular Devices). Inhibition rate was calculated by the relative absorbance value of test compound wells with the average of control wells […].

A375 cells = test: Antiproliferative activity, SRB staining; format: cell-based; conditions: Homo sapiens, A-375, melanoma cell line, 72 h
Protocol: as §2

U87MG cells = test: Antiproliferative activity, SRB staining; format: cell-based; conditions: Homo sapiens, U-87 MG, glioma cell line, 72 h
Protocol: as §2

A2058 cells = test: Antiproliferative activity, SRB staining; format: cell-based; conditions: Homo sapiens, melanoma cell line, 72 h
Protocol: as §2

A172 cells = test: Antiproliferative activity, SRB staining; format: cell-based; conditions: Homo sapiens, A 172, glioma cell line, 72 h
Protocol: as §2

Sequence of SAPK2a (Q16539 whole entry): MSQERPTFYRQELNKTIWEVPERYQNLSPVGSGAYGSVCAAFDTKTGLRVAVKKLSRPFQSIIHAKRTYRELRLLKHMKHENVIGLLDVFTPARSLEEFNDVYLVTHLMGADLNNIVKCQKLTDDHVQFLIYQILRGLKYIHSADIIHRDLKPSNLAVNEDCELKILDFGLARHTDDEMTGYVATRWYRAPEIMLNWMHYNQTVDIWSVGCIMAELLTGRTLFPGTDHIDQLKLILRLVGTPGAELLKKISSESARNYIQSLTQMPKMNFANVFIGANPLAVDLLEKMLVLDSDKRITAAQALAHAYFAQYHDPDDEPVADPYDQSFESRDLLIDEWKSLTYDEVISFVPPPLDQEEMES
Sequence of PLK3 (Q9H4B4 whole entry): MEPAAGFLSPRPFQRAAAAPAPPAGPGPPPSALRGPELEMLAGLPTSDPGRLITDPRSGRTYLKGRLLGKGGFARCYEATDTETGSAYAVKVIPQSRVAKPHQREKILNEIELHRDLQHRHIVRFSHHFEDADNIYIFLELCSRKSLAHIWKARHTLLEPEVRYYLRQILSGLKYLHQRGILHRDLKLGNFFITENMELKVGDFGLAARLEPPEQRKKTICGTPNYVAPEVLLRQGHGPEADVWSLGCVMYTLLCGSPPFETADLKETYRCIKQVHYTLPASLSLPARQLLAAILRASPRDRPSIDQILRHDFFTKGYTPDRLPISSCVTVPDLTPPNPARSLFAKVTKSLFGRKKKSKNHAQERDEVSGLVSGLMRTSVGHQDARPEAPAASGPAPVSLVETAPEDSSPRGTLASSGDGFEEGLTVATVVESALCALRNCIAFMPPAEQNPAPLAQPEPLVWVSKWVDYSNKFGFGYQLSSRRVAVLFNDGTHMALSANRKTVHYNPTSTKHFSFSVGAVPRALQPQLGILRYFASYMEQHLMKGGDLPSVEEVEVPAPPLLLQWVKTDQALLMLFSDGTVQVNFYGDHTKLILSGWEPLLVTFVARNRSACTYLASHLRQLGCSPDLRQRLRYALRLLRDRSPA
Sequence of PI3K(p120g) (P48736 whole entry): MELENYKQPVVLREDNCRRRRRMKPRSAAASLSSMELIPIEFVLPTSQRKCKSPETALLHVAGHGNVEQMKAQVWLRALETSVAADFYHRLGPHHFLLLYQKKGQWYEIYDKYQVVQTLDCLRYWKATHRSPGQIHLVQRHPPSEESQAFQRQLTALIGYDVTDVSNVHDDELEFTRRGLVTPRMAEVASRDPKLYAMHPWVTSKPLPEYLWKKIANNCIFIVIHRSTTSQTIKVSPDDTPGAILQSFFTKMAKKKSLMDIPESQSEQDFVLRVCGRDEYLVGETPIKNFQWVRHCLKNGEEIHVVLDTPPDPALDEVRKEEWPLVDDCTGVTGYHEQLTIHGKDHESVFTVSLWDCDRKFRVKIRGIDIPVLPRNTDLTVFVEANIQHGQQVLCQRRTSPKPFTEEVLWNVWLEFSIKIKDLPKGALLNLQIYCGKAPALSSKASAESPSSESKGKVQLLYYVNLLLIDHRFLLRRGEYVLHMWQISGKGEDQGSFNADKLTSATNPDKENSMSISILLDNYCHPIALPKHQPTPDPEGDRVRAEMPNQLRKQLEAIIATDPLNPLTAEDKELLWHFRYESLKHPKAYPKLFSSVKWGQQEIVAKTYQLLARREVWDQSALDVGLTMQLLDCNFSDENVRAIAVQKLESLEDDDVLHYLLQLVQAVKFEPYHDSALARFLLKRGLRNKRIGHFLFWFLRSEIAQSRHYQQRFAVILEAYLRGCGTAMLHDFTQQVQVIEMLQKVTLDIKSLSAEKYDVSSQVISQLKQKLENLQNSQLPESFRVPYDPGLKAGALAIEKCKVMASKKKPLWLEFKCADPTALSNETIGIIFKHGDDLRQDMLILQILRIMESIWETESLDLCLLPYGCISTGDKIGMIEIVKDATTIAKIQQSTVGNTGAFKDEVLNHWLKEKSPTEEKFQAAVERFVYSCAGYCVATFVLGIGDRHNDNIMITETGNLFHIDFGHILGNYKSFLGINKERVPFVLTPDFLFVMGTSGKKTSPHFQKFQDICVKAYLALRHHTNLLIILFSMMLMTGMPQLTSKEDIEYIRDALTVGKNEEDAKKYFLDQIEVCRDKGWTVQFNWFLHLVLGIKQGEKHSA
Sequence of MAPKAP-K2 (P49137 whole entry): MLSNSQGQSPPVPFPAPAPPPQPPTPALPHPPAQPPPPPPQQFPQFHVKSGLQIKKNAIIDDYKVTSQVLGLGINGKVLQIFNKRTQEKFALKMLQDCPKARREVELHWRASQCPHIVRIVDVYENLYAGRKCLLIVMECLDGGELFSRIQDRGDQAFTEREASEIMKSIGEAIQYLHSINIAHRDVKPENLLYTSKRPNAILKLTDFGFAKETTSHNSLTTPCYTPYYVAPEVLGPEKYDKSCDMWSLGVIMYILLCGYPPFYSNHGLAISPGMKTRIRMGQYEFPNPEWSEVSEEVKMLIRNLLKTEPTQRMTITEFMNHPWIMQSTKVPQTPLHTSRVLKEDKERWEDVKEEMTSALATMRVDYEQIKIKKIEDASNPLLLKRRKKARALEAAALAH
Sequence of PI3K(p110b/p85a) (P42338 whole entry): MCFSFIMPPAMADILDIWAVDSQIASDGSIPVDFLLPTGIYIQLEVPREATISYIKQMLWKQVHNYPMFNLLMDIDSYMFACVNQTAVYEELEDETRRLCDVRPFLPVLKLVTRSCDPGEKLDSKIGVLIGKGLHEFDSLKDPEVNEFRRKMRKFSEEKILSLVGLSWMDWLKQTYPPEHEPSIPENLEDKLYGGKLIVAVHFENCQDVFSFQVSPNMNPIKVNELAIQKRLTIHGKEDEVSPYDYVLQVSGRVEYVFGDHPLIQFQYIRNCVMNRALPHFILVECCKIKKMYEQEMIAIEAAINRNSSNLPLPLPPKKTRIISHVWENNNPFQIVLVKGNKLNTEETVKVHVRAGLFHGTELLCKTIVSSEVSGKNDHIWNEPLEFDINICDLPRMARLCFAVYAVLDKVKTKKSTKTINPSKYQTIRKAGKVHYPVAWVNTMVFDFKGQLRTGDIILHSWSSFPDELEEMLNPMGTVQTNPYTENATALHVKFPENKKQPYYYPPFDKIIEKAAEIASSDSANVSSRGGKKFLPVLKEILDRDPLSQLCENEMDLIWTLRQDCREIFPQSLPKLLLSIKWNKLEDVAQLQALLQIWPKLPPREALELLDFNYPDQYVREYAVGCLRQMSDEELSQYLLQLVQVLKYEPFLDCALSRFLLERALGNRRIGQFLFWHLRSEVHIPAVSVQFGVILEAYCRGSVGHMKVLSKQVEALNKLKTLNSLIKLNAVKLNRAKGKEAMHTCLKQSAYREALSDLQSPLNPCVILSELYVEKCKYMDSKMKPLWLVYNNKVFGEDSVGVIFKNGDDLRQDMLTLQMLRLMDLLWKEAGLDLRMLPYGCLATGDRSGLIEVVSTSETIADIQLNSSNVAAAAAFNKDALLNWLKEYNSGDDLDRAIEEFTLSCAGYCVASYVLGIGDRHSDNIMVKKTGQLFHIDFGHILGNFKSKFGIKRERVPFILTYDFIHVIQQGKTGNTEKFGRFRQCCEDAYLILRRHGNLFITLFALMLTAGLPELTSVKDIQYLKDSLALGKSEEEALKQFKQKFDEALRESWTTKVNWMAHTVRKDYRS
Sequence of PI3K(p110b/p85a) (P27986 whole entry partner): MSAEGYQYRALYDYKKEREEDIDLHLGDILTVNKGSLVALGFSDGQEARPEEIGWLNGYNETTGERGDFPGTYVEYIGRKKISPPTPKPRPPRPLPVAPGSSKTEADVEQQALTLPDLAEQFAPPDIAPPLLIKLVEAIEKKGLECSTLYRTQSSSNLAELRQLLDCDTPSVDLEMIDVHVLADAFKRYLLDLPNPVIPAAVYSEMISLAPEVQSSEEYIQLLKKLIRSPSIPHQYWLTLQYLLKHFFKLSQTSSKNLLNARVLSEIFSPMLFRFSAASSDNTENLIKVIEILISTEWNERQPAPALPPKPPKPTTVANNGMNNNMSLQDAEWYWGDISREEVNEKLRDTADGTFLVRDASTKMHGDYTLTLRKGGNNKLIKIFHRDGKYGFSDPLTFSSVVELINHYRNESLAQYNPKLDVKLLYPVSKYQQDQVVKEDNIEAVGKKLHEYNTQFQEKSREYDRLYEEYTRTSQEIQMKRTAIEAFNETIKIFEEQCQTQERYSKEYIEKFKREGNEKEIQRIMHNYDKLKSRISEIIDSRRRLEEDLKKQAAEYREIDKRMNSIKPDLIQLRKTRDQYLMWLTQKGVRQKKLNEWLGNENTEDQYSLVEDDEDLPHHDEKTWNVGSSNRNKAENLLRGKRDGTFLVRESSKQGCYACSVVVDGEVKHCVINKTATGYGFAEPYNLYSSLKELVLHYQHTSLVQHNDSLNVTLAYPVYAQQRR

SMILES: Cc1nc2c(F)cc(-c3n[nH]c4ncc(-c5cccc(S(N)(=O)=O)c5)cc34)cc2n1C(C)C [Compound 15y]
- %kinase activity @ 1.0 μM, PLK3 (PLK3): 101%
- %kinase activity @ 1.0 μM, PI3K(p110b/p85a) (PI3K(p110b/p85a)): 95%
- activity at 1 µM (PKBα): 111%
- %kinase activity @ 1.0 μM, EphA5 (EphA5): 51%
- %kinase activity @ 1.0 μM, MEK1 (MEK1): 52%
- %kinase activity @ 1.0 μM, PKG1α (PKG1α): 54%
- %kinase activity @ 1.0 μM, Rse (Rse): 49%
- %kinase activity @ 1.0 μM, mTOR (mTOR): 30%
- %kinase activity @ 1.0 μM, IGF-1R (IGF-1R): 88%
- %kinase activity @ 1.0 μM, SAPK2a (SAPK2a): 60%
- %kinase activity @ 1.0 μM, PKA (PKA): 84%
- %kinase activity @ 1.0 μM, PRAK (PRAK): 60%
- %kinase activity @ 1.0 μM, eEF-2K (eEF-2K): 108%
- %kinase activity @ 1.0 μM, MAPKAP-K2 (MAPKAP-K2): 95%
- %kinase activity @ 1.0 μM, CK1γ1 (CK1γ1): 33%
- %kinase activity @ 1.0 μM, PKCθ (PKCθ): 33%
- %kinase activity @ 1.0 μM, PI3K(p120g) (PI3K(p120g)): 32%
- %kinase activity @ 1.0 μM, PKCα (PKCα): 27%
- %kinase activity @ 1.0 μM, PDGFRβ (PDGFRβ): 21%
- %kinase activity @ 1.0 μM, EphB4 (EphB4): 77%
- %kinase activity @ 1.0 μM, ASK1 (ASK1): 56%
- inhibition at 0.0001 µM (TBK1; compound at 0.1 nM, read-out: TBK1 inhibition (%) 0.1 nM): 33.6%
- inhibition at 0.001 µM (TBK1; compound at 1 nM, read-out: TBK1 inhibition (%) 1 nM): 88.8%
- inhibition at 0.01 µM (TBK1; compound at 10 nM, read-out: TBK1 inhibition (%) 10 nM): 93.8%
- inhibition at 0.1 µM (TBK1; compound at 100 nM, read-out: TBK1 inhibition (%) 100 nM): 102%
- inhibition at 1 µM (TBK1; compound at 1 μM, read-out: TBK1 inhibition (%) 1 μM): 53.9%
- IC50 (TBK1; mean of two separate experiments): 0.2 nM
- IC50 (Panc0504 cells): 3600 nM
- IC50 (A375 cells): 3100 nM
- IC50 (U87MG cells): 2400 nM
- IC50 (A2058 cells): 900 nM
- IC50 (A172 cells): 1400 nM
